Structures can show the parent of a compound that is named as a salt. Where two headings read alike, the source gives them in different places.
Columns and labels:
[1] = biological target: T1, type II dehydroquinase from Mycobacterium tuberculosis (Mycobacterium tuberculosis, UniProt P9WPX7); assay: biochemical; details: pH = 7.0, 25° C., 50 mM Tris•HOAc
Procedure: (§1) Effect of compounds of formula I of the invention on the catalytic activity of the type II dehydroquinase from various sources. The inhibitory potency of compounds I of the invention against type II dehydroquinases from Mycobacterium tuberculoris, Streptomyces coelicolor and Helicobacter pylori were assayed as it is described in the following articles: 1) Sanchez-Sixto, C.; Prazeres, V. F. V.; Castedo, L.; Lamb, H.; Hawkins, A. R.; Gonzalez-Bello, C. J. Med. Chem. 2005, 48, 4871; 2) Prazeres, V. F. V.; Sanchez-Sixto, C.; Castedo, L.; Lamb, H.; Hawkins, A. R.; Riboldi-Tunnicliffe; Coggins, J. R.; Lapthorn, A. J.; González-Bello, C. Chem Med Chem 2007, 2, 194; and 3) Sanchez-Sixto, C.; Prazeres, V. F. V.; Castedo, L.; S. W. Suh, Lamb, H.; Hawkins, A. R.; Canada, F. J.; Jiménez-Barbero, J.; González-Bello, C. Chem Med Chem 2008, 3, 756.

[2] = biological target: T2, type II dehydroquinase from Helicobacter pylori (Helicobacter pylori, UniProt Q48255); assay: Inhibition of type II dehydroquinase from Helicobacter pylori (Ki); assay type: biochemical; details: pH = 7.0, 25° C., 50 mM Tris•HCl
T2 sequence (Q48255 1-167): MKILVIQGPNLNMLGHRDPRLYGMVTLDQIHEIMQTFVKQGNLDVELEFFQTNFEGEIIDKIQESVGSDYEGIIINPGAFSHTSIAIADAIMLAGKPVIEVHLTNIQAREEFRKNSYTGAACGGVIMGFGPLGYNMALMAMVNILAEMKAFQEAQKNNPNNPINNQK
Procedure: as §1

[3] = biological target: type II dehydroquinase from Streptomyces coelicolor (Streptomyces coelicolor, UniProt P15474); assay: Inhibition of type II dehydroquinase from Streptomyces coelicolor (Ki); assay type: biochemical
Procedure: as §1

[4] = biological target: T2, type II dehydroquinase from Helicobacter pylori; details: read-out: Km of natural substrate, H. pylori; cited from earlier work
[5] = biological target: T1, type II dehydroquinase from Mycobacterium tuberculosis; details: read-out: Km of natural substrate, M. tuberculosis; cited from earlier work
[6] = Inhibition constants Ki, M. tuberculosis
[7] = Inhibition constants Ki, H. pylori
[8] = pH = 7.0, 25° C., 50 mM Tris•HCl, read-out: Inhibition constants Ki, S. coelicolor
[9] = Inhibition constants Ki, S. coelicolor, pH = 7.0, 25° C., 50 mM Tris•HCl
[10] = read-out: Inhibition constants Ki, H. pylori
[11] = read-out: Inhibition constants Ki, M. tuberculosis

T1 sequence (P9WPX7 whole entry): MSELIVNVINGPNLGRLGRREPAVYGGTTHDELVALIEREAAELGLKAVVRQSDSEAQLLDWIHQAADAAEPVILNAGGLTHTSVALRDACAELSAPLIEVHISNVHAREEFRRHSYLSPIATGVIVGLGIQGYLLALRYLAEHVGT
Sequence of type II dehydroquinase from Streptomyces coelicolor (P15474 whole entry): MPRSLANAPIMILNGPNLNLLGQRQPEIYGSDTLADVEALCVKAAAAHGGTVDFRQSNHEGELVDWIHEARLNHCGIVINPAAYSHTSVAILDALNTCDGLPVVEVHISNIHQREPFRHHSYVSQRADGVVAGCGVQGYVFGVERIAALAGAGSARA

SMILES | Ki [1, 6] | melting point | further results
CCc1cc2c(s1)[C@@H](O)[C@H](O)C[C@]2(O)C(=O)O [Ic-9, (4R,6R,7S)-2-ethyl-4,6,7-trihydroxy-4,5,6,7-tetrahydrobenzo[b]thiophen-4-carboxylic acid] | 185 nM | 130 °C (dec.) | Ki [2, 7]: 3400 nM; Ki [3, 8]: 800 nM
COc1ccc(CC2C(=O)C(O)C(O)CC2(O)C(=O)O)cc1 (single isomer, unassigned) [(2S)-Ia-5] | 100 nM | 138 to 143 °C | Ki [3, 9]: 340 nM
Cc1ccc(CC2C(=O)C(O)C(O)CC2(O)C(=O)O)cc1 (single isomer, unassigned) [(2S)-Ia-4] | 90 nM | 134 to 138 °C | Ki [2, 10]: 970 nM; Ki [3, 9]: 150 nM
O=C([O-])[C@@]1(O)C[C@@H](O)[C@H](O)C(OCc2ccc3ccccc3c2)=C1Cc1ccc2ccccc2c1.[Na+] (hydrate or solvate) [Ib-11, Sodium (1R,4S,5R)-1,4,5-trihydroxy-3-(naphth-2-yl)methoxy-2-(naphth-2-yl)methylcyclohex-2-en-1-carboxylate] |  | 184 to 187 °C | 
O=C1[C@@H](O)[C@H](O)C[C@](O)(C(=O)O)[C@@H]1Cc1ccccc1 [(2S)-Ia-3, (2S)-2-benzyl-3-dehydroquinic acid] |  | 131 to 134 °C | Ki [1, 11]: 90 nM; Ki [2, 10]: 1180 nM; Ki [3, 9]: 1050 nM
O=C1C(O)C(O)CC(O)(C(=O)O)C1Cc1ccc2sccc2c1 (single isomer, unassigned) [(2S)-Ia-7] | 55 nM | 152 to 155 °C | Ki [2, 10]: 900 nM; Ki [3, 9]: 38 nM
O=C1[C@@H](O)[C@H](O)C[C@](O)(C(=O)O)[C@H]1Cc1ccccc1 [(2R)-Ia-3, (2R)-2-benzyl-3-dehydroquinic acid] |  | 146 to 148 °C | Ki [1, 11]: 100 nM; Ki [2, 10]: 1400 nM; Ki [3, 9]: 1550 nM
C/C=C/c1cc2c(s1)[C@@H](OC(C)=O)[C@H](OC(C)=O)C[C@]2(OC(C)=O)C(=O)OC |  | 140 to 143 °C | 
Cc1cc2c(s1)[C@@H](O)[C@H](O)C[C@]2(O)C(=O)O (hydrate or solvate) [Ic-2, (4R, 6R, 7S)-4,6,7-trihydroxy-2-methyl-4,5,6,7-tetrahydrobenzo[b]thiophen-4-carboxylic acid] |  | 92 to 95 °C | 
O=C(O)[C@@]1(O)C[C@@H](O)[C@H](O)c2sccc21 [Ic-1, (4R, 6R, 7S)-4,6,7-trihydroxy-4,5,6,7-tetrahydrobenzo[b]thiophen-4-carboxylic acid] | 3000 nM | 128 to 131 °C | Ki [2, 7]: 34000 nM; Ki [3, 8]: 9700 nM
O=C([O-])[C@@]1(O)C[C@@H](O)[C@H](O)C(OCc2cccs2)=C1Cc1cc2ccccc2s1.[Na+] (hydrate or solvate) [Ib-12, Sodium (1R,4S,5R)-1,4,5-trihydroxy-3-(thien-2-yl)methoxy-2-(benzo[b]thiophen-2-yl)methylcyclohex-2-en-1-carboxylate] |  | 191 to 194 °C | 
O=C([O-])[C@]1(O)C=C(OCc2ccc3sccc3c2)[C@@H](O)[C@H](O)C1.[Na+] (hydrate or solvate) [Ib-7, Sodium (1R,4S,5R)-1,4,5-trihydroxy-3[(benzo[b]thiophen-5-yl)methoxy]cyclohex-2-en-1-carboxylate] |  | 157 to 160 °C (dec.) | 
O=C(O)[C@@]1(O)C[C@@H](O)[C@H](O)c2sc(/C=C/C3CC3)cc21 [Ic-6] | 110 nM | 103 to 105 °C | Ki [2, 7]: 1080 nM; Ki ([3]; read-out: affinities in the case of S. coelicolor): 0.3 nM
O=C(O)[C@@]1(O)C[C@@H](O)[C@H](O)c2sc(-c3ccccc3)cc21 [Ic-7, (4R,6R,7S)-4,6,7-trihyclroxy-2-phenyl-4,5,6,7-tetrahydroben-zo[b]thiophen-4-carboxylic acid] | 97 nM | 168 to 173 °C | Ki [2, 7]: > 150000 nM; Ki [3, 8]: 85 nM
O=C(O)[C@]1(O)C=C(OCc2ccc3ccccc3c2)[C@@H](O)[C@H](O)C1 (as salt: sodium) (hydrate or solvate) [Ib-.10, Sodium (1R,4S,5R)-1,4-trihydroxy-3-(2-naphyl)methoxycyclohex-2-en-1-carboxylate] |  | 54 °C (dec.) | 
O=C(O)[C@@]1(O)C[C@@H](O)[C@H](O)c2sc(/C=C/c3ccccc3)cc21 [Ic-11] |  | 200 °C (dec.) | Ki [2, 7]: 16000 nM; Ki [3, 8]: 150 nM
O=C1C[C@@](O)(C(=O)O)C[C@@H](O)[C@@H]1O [natural substrate] |  |  | Km [4]: 444 µM; Km [5]: 40 µM
Cc1ccc(CC2C(=O)C(O)C(O)CC2(O)C(=O)O)cc1 (single isomer, unassigned) (hydrate or solvate) [(2R)-Ia-4] |  | 105 to 108 °C | 

Source: patent US20110313032A1, “COMPETITIVE INHIBITORS OF TYPE II DEHYDROQUINASE ENZYME” (priority 2008, published 2011)
